The record followed here is US4273765A, “Amino sugar derivatives containing trehalose” (Hoffmann-La Roche Inc., priority 1978, dated 1981).

The subject of series [1] is hyperglycemia induced by cooked rice starch. The series can be described thus: Inhibition of hyperglycemia induced by cooked rice starch, mice. The format is in vivo. To be noted: p.o., dose causing after 20 minutes a 20 percent decrease of hyperglycemia, 2 g/kg cooked rice starch. The procedure:
(§1) **ED20 is defined as the dose causing after 20 minutes a 20 percent
(§2) decrease of hyperglycemia induced by oral administration of 2 g/kg body
(§3) weight cooked rice starch.

Series [2] is described as follows: Solubility in solvents. Type of series: physicochemical. The source says: (h) Solubility in solvents:
Series [3] is described as follows: Titration (in water). Type of series: physicochemical.
Series [4] deals with Pseudomonas aeruginosa IFO12689. The experiment in a line: Antimicrobial spectrum, agar-dilution method. The format is cell-based.
The test system of series [5] is Salmonella typhimurium IFO12529. The experiment in a line: Antimicrobial spectrum, agar-dilution method. Type of series: cell-based.
In series [6] the test system is Citrobacter. The series can be described thus: Antimicrobial spectrum, agar-dilution method. Type of series: cell-based.
Series [7] concerns Candida albicans Yu1200. The series can be described thus: Antimicrobial spectrum, agar-dilution method. The format is cell-based.
For series [8], the system named is E. coli CF17. The series can be described thus: Antimicrobial spectrum, agar-dilution method. Type of series: cell-based.
Series [9] relates to E. coli K-12 ML1630. The experiment in a line: Antimicrobial spectrum, agar-dilution method. Type of series: cell-based. The note with it: E. coli K-12 ML1630, agar-dilution.
Series [10] deals with Shigella flexneri. The experiment in a line: Antimicrobial spectrum, agar-dilution method. Type of series: cell-based.
Series [11] has as its system E. coli NIHJ STf. The series can be described thus: Antimicrobial spectrum, agar-dilution method. Type of series: cell-based.
The subject of series [12] is hyperglycemia induced by cooked rice starch. The series can be described thus: Inhibition of hyperglycemia induced by cooked rice starch, rats. Type of series: in vivo. To be noted: p.o., dose causing after 20 minutes a 20 percent decrease of hyperglycemia, 2 g/kg cooked rice starch. The procedure: as §1, §2, §3
In series [13] the test system is E. coli CF41. The experiment in a line: Antimicrobial spectrum, agar-dilution method. The format is cell-based.
Series [14] has as its system rats. The experiment in a line: Acute toxicity, oral, rats. The note with it: 500 mg/kg administered to rats orally (65-700 times the effective dosage).
Series [15] deals with Mycobacterium smegmatis ATCC607. The experiment in a line: Antimicrobial spectrum, agar-dilution method. Type of series: cell-based.
Series [16] has as its system Pseudomonas aeruginosa A3. The experiment in a line: Antimicrobial spectrum, agar-dilution method. The format is cell-based.
The subject of series [17] is Klebsiella pneumoniae PCI602. The experiment in a line: Antimicrobial spectrum, agar-dilution method. The format is cell-based.
The subject of series [18] is E. coli NIHJ SMf. The experiment in a line: Antimicrobial spectrum, agar-dilution method. The format is cell-based.
Series [19] relates to Serratia marcescens IFO12648. The experiment in a line: Antimicrobial spectrum, agar-dilution method. The format is cell-based.
In series [20] the test system is Bacillus subtilis PCI 219. The series can be described thus: Antimicrobial spectrum, agar-dilution method. The note with it: Bacillus subtilis PCI 219, agar-dilution. Type of series: cell-based.
Series [21] has as its system Salmonella paratyphi B. To be noted: agar-dilution.
For series [22], the target named is T1, porcine pancreatic α-amylase (Sus scrofa, UniProt P00690).
T1 sequence (P00690 16-511): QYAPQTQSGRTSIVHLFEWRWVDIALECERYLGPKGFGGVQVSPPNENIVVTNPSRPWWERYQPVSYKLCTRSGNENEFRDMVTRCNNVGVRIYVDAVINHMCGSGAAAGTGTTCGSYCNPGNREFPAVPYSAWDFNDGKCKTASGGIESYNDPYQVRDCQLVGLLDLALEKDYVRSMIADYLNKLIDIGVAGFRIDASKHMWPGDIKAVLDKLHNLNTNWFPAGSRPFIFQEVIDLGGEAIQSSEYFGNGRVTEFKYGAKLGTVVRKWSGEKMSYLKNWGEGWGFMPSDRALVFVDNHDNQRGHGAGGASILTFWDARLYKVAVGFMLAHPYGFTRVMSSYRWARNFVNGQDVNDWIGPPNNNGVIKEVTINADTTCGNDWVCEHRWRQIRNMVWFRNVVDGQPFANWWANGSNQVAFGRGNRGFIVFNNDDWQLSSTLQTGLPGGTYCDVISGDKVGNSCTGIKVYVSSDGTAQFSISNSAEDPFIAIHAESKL
The series can be described thus: Porcine pancreatic α-amylase inhibitory activity (Bernfeld assay). The note with it: IU = amount giving 50% inhibition of 2 units porcine pancreatic α-amylase, pH 6.9, 37° C. The format is biochemical. As for the experimental part:
2 units* of porcine pancreatic α-amylase in 0.1 ml of 6.4 mM ammonium sulfate solution are added to 0.6 ml of 20 mM phosphate buffer (pH 6.9) containing 10 mM sodium chloride and different amounts of Trestatin. The mixture, after equilibration at 37° C. for 5 min. followed by the addition of 0.5 ml of 4% soluble starch solution, is incubated for 5 min. at 37° C. The reaction is terminated by the addition of 2 ml of dinitrosalicylic acid reagent prepared according to the method of P. Bernfeld. The mixture is heated on a boiling water bath for 5 min. and then diluted with 10 ml of water. Absorbance (A1) of the resulting colored solution is measured at 540 nm, and the inhibition of α-amylase activity can be calculated from the following equation: [formula] A0; absorbance without enzyme A2; absorbance without Trestatin
*1 unit of the α-amylase is the amount of enzyme which catalyzes under the above conditions without Trestatin the formation of reducing sugars equivalent to 1 μmol of maltose.
Each of said inhibitory activities was determined by the method mentioned above.

In series [23] the test system is Staphylococcus aureus Smith. The experiment in a line: Antimicrobial spectrum, agar-dilution method. The format is cell-based.
Series [24] relates to Pseudomonas aeruginosa P2. The series can be described thus: Antimicrobial spectrum, agar-dilution method. Type of series: cell-based.
The test system of series [25] is Bordetella bronchiseptica Aichi 202. The series can be described thus: Antimicrobial spectrum, agar-dilution method. The format is cell-based. To be noted: Bordetella bronchiseptica Aichi 202, agar-dilution.
For series [26], the system named is hyperglycemia following an oral load of sucrose. The experiment in a line: Hyperglycemia following an oral load of sucrose. The format is in vivo. The note with it: dose/kg 30.0 mg; 20 min. after 3.2 g sucrose/kg.
Description: (§4) [Plasma Glucose and insulin 20 min. after carbohydrate ± Trestatin (1.
g wheat starch/kg or 3.2 g sucrose/kg)]
Series [27] concerns Staphylococcus aureus MS3937. The series can be described thus: Antimicrobial spectrum, agar-dilution method. Type of series: cell-based.
Series [28] deals with hyperglycemia (hyperinsulinemia) following an oral load of native starch. The experiment in a line: Hyperglycemia (hyperinsulinemia) following an oral load of native starch. Type of series: in vivo. To be noted: 20 min. after wheat starch.
Description: as §4
g wheat starch/kg or 3.2 g sucrose/kg)]
Series [29] has as its system Proteus rettgeri. The experiment in a line: Antimicrobial spectrum, agar-dilution method. The format is cell-based.
Series [30] deals with E. coli NIHJ. The series can be described thus: Antimicrobial spectrum, agar-dilution method. Type of series: cell-based.
Series [31] has as its system Staphylococcus aureus MS9261. The experiment in a line: Antimicrobial spectrum, agar-dilution method. The format is cell-based.
For series [32], the system named is Staphylococcus aureus FDA209P. The experiment in a line: Antimicrobial spectrum, agar-dilution method. Type of series: cell-based.
The test system of series [33] is Proteus vulgaris OX19 ATCC6898. The experiment in a line: Antimicrobial spectrum, agar-dilution method. Type of series: cell-based.
Series [34] has as its system Sarcina lutea ATCC 9341. The experiment in a line: Antimicrobial spectrum, agar-dilution method. The format is cell-based. To be noted: Sarcina lutea ATCC 9341, agar-dilution.

With `C[C@H]1O[C@H](O[C@@H]2[C@H](O)[C@H](O)[C@@H](O[C@@H]3[C@H](O)[C@@H](O)[C@@H](O[C@@H]4[C@H](O)[C@H](O)[C@@H](O[C@H]5O[C@@H](CO)[C@H](O)[C@H](O)[C@H]5O)O[C@@H]4CO)O[C@@H]3CO)O[C@H]2CO)[C@H](O)[C@@H](O)[C@@H]1N[C@H]1C=C(CO)[C@@H](O[C@H]2O[C@H](CO)[C@H](O[C@H]3O[C@H](C)[C@@H](N[C@H]4C=C(CO)[C@@H](O)[C@H](O)[C@H]4O)[C@H](O)[C@H]3O)[C@H](O)[C@H]2O)[C@H](O)[C@H]1O` (stereo in doubt) [Trestatin A], the figures for the “ED20, inhibition of hyperglycemia induced by cooked rice starch” value in series [1] and in [12] were 1.1 mg/kg and 1.0 mg/kg, respectively. The Solubility in acetone entry in series [2] is given as “slightly soluble”. The Solubility in chloroform result in series [2] is “insoluble”. Moreover, the Solubility in dimethylsulfoxide entry in series [2] is listed as “soluble”. The Solubility in ethanol entry in series [2] is “slightly soluble”. The “Solubility in ethyl acetate” value in series [2] is “insoluble”. The Solubility in water entry in [2] is recorded as “easily soluble”. The “pKa'” value in series [3] turned out to be 5.0. Moreover, the Antimicrobial spectrum in series [4], in series [5], in series [6], in series [7], in [8] and in series [9] was above 100 µg/mL each time. Also, the Antimicrobial spectrum in [10], in series [11], in series [13], in series [15], in series [16] and in series [17] was above 100 µg/mL each time. Further, the Antimicrobial spectrum in series [18], in [19], in [20], in series [21], in series [23] and in [24] was above 100 µg/mL each time. Moreover, the Antimicrobial spectrum in series [25], in [27], in series [29], in series [30], in [31] and in series [32] was above 100 µg/mL in each case. Also, the Antimicrobial spectrum in series [33] and in series [34] was above 100 µg/mL each time. The Acute toxicity entry in series [14] is reported as “not observed”. Also, the Inhibitory activities in [22] is reported as 7.1 × 10^7 IU/g. In addition, the “Plasma glucose, sucrose - load” value in series [26] is on record as 84% of carbohydrate primed controls. The “Plasma glucose, starch - load” value in series [28] (dose/kg 0.3 mg) is reported as 68% of carbohydrate primed controls; in series [28] (dose/kg 1.0 mg) it was 56% of carbohydrate primed controls; in series [28] (dose/kg 3.0 mg), 55% of carbohydrate primed controls. Besides, the “Plasma insulin, starch - load” value in [28] (dose/kg 0.3 mg) is given as 66% of carbohydrate primed controls; in series [28] (dose/kg 1.0 mg), 42% of carbohydrate primed controls; in series [28] (dose/kg 3.0 mg) it was 42% of carbohydrate primed controls.

Turning to `C[C@H]1O[C@H](O[C@@H]2[C@H](O)[C@@H](O)[C@@H](O[C@@H]3[C@H](O)[C@@H](O)[C@@H](O[C@@H]4[C@H](O)[C@H](O)[C@@H](O[C@H]5O[C@H](CO)[C@H](O)[C@H](O)[C@H]5O)O[C@@H]4CO)O[C@@H]3CO)O[C@H]2CO)[C@@H](O)[C@@H](O)[C@@H]1N[C@@H]1C=C(CO)[C@@H](O)[C@@H](O)[C@@H]1O` (stereo in doubt) [Trestatin B], the “ED20, inhibition of hyperglycemia induced by cooked rice starch” value came to 3.2 mg/kg in series [1] and 7.7 mg/kg in series [12]. Moreover, the Solubility in acetone result in series [2] is “slightly soluble”. Moreover, in series [2], the Solubility in chloroform result was “insoluble”. Besides, the Solubility in dimethylsulfoxide entry in series [2] is reported as “soluble”. For the same molecule, the Solubility in ethanol result in series [2] is recorded as “slightly soluble”. The “Solubility in ethyl acetate” value in series [2] is “insoluble”. Moreover, in series [2], the Solubility in water entry is reported as “easily soluble”. In addition, the “pKa'” value in [3] was determined as 5.0. In addition, the Antimicrobial spectrum in series [4], in [5], in series [6], in series [7], in [8] and in [9] was above 100 µg/mL each time. In addition, the Antimicrobial spectrum in series [10], in series [11], in series [13], in series [15], in series [16] and in [17] was above 100 µg/mL throughout. For the same molecule, the Antimicrobial spectrum in series [18], in series [19], in [20], in [21], in series [23] and in [24] was above 100 µg/mL each time. For the same molecule, the Antimicrobial spectrum in series [25], in series [27], in series [29], in series [30], in [31] and in series [32] was above 100 µg/mL in each case. The Antimicrobial spectrum in series [33] and in series [34] was above 100 µg/mL throughout. The Acute toxicity entry in series [14] was “not observed”. For the same molecule, in series [22], the Inhibitory activities is 1.5 × 10^6 IU/g.

With “Trestatin A dihydrochloride [Trestatin A . HCl]”, the Inhibitory activities in series [22] is 6.3 × 10^7 IU/g.

“Trestatin B monohydrochloride [Trestatin B . HCl]”: the Inhibitory activities in [22] is listed as 1.3 × 10^6 IU/g.

For “Trestatin C trihydrochloride [Trestatin C . HCl]”, the Inhibitory activities in [22] is reported as 4.5 × 10^7 IU/g.
